Assays:
Assay type in all cases: in vivo, human
[1] = tested on: Subjects Having Insomnia Disorder; assay: Example 2: Cognitive Performance Assessment Battery
Method: FIG. 11A-FIG. 11D show the change from baseline (least squares mean) in the four domains of the Cognitive Performance Assessment Battery at Days 2/3 and Days 30/31 in patients treated with placebo, 6.25 mg of zolpidem, 5 mg of lemborexant, or 10 mg of lemborexant.
Subjects were provided with a sleep diary and trained on how to record entries. After subjects completed the sleep diary on 7 consecutive mornings, and provided that the subject was still eligible to participate in the study, they attended a second clinical meeting between 10 and 17 days before the randomization phase. […]
Within 5 minutes of the subject's mean habitual bedtime, study drug was administered and an overnight polysomnogram recording was initiated. At completion of the recording the following morning (Day 2), postural stability and cognitive performance were assessed. […] The next morning (Day 3), postural stability and cognitive performance were assessed. […]
On Day 29, subjects returned to the clinic. […] On the following morning (Day 30), postural stability and cognitive performance were assessed. […]
On the evening of Day 30, subjects returned to the clinic. […] The following morning (Day 31), postural stability and cognitive performance were assessed and a blood sample was obtained. […] An electrocardiogram was performed, and vital signs and weight were assessed. […]

[2] = tested on: Subjects Having Insomnia Disorder; assay: Example 2: Insomnia Severity Index Daytime Functioning (Items 4-7); conditions: for Insomnia Severity Daytime Functioning (Items 4-7), Change from Study Baseline, Mean (SD) / Insomnia Severity Daytime Functioning (Items 4-7), Change from Study Baseline, Median / Insomnia Severity Daytime Functioning (Items 4-7), Mean (SD) / Insomnia Severity Daytime Functioning (Items 4-7), Median: Day 31
From the text: As used herein, the term “Insomnia Severity Index”, abbreviated as “ISI”, is an index calculated using a 7-item, self-report questionnaire assessing the nature, severity, and impact of insomnia (see Bastien, C. H., et al. “Validation of the Insomnia Severity Index as an outcome measure for insomnia research.” Sleep Med. 2001; 2(4): 297-307). The questionnaire evaluates: (1) severity of sleep onset; (2) sleep maintenance; (3) early morning awakening problems; (4) sleep dissatisfaction; (5) interference caused by sleep difficulties with daytime functioning; (6) noticeability of sleep problems by others; and (7) distress caused by the sleep difficulties. A 5-point scale is used to rate each item (0=no problem to 4=very severe problem) yielding a total score from 0 to 28. Total ISI score (items (1)-(7)) and daytime functioning (items (4)-(7)) are analyzed separately.
On day 1 of the baseline period, subjects were admitted to the clinic and ISI, FSS, and EQ-5D-3L were administered. Blood and urine samples were collected for routine safety assessments, an ECG was performed, and vital signs and weight were assessed. The eC-SSRS was administered. Subjects who completed the baseline period and continued to meet the eligibility criteria were randomized and began the randomization phase.
On the evening of Day 30, subjects returned to the clinic. A pre-dose blood sample was collected and study drug was again administered within 5 minutes of the subject's mean habitual bedtime. A polysomnogram recording was initiated. The following morning (Day 31), postural stability and cognitive performance were assessed and a blood sample was obtained. The ISI, FSS, EQ-5D-3L and PGI-Insomnia were administered. Blood and urine samples were collected for routine safety assessment. An electrocardiogram was performed, and vital signs and weight were assessed. The eC-SSRS was then administered to the subject. At 1.5 hours after waketime, subjects rated their morning sleepiness level.

[3] = tested on: Subjects Having Insomnia Disorder; assay: Example 2: subjective sleep efficiency (sSE), sleep diary
From the text: As used herein, the term “subjective sleep efficiency”, abbreviated as “sSE”, means the proportion of sTST per subjective time spent in bed, calculated as the interval from the time the subject reports attempting to sleep until the time the subject stopped trying to sleep for the night (operationalized as the time the subject got out of bed for the day), and time spent asleep derived from subjective time spent in bed minus sWASO. As used herein, an “improvement of sleep efficiency in Subjective Sleep Efficiency (sSE)” means an increase in sleep efficiency in Subjective Sleep Efficiency (sSE).
In some embodiments, sleep diaries were used to assess sleep parameters reported by subjects (i.e., subjective assessments) including subjective sleep onset latency (sSOL), subjective sleep efficiency (sSE), subjective WASO (sWASO), and subjective total sleep time (sTST). Subjects were instructed to complete the Sleep Diary developed based on the consensus Sleep Diary as described in Carney et al., “The consensus sleep diary: standardizing prospective sleep self-monitoring,” Sleep 2012; 35(2):287-302. In some embodiments, the Sleep Diary was used to assess the subject's global perception of quality of sleep on the previous night with the following question: “How would you rate the quality of your sleep last night?” Subjects rated the quality of their sleep on a scale from 1 to 9, with 1 being extremely poor and 9 being extremely good. In some embodiments, the Sleep Diary was used to assess subjective ratings of morning sleepiness with the following question: “How alert/sleepy do you feel this morning?” Subjects rated their sleepiness/alertness level on a Likert scale from 1 to 9, with 1 being extremely sleepy and 9 being extremely alert.
sSE—subjective sleep efficiency: proportion of sTST per subjective time spent in bed, calculated as the interval from the time the subject reports attempting to sleep until the time the subject stopped trying to sleep for the night (operationalized as the time the subject got out of bed for the day), and time spent asleep derived from subjective time in bed minus sWASO.
The treatment period lasted for 31 days. Subjects were randomized in a double-blind manner and received placebo, a tablet containing 5 mg of lemborexant, a tablet containing 10 mg of lemborexant, or a tablet containing 6.25 mg of zolpidem ER.
Once home, the subject ingested study drug each night prior to bedtime and completed their sleep diary within 1 hour of waketime.

[4] = First 7 Nights of Treatment, Zolpidem ER 6.25 mg
[5] = Last 7 Nights of Treatment, Zolpidem ER 6.25 mg
[6] = First 7 Nights of Treatment, Lemborexant 5 mg
[7] = First 7 Nights of Treatment, Lemborexant 10 mg
[8] = Last 7 Nights of Treatment, Lemborexant 5 mg
[9] = Last 7 Nights of Treatment, Lemborexant 10 mg

## Cc1ccc(-c2nc3ccc(C)cn3c2CC(=O)N(C)C)cc1 [Zolpidem ER, zolpidem, reference compound]
[1]; after the first 2 nights of treatment, 3 of the 4 domains vs placebo and 5 mg, 2 of the 4 domains vs 10 mg lemborexant (FIGS. 11A-11D)
  performance on Cognitive Performance Assessment Battery: significantly worse performance than placebo
[2]; Zolpidem ER 6.25 mg
  Insomnia Severity Daytime Functioning (Items 4-7), Change from Study Baseline, Mean (SD): −5.24 (3.764)
  Insomnia Severity Daytime Functioning (Items 4-7), Change from Study Baseline, Median: −5.00
  Insomnia Severity Daytime Functioning (Items 4-7), Mean (SD): 5.87 (3.417)
  Insomnia Severity Daytime Functioning (Items 4-7), Median: 6.00
[3]; [4]
  Subjective Sleep Efficiency, Change from Study Baseline, Mean (SD): 11.96 (12.526)
  Subjective Sleep Efficiency, Mean (SD): 66.45 (16.419)
  Subjective Sleep Efficiency, Model-adjusted change from baseline: 12.11
[3]; [5]
  Subjective Sleep Efficiency, Change from Study Baseline, Mean (SD): 14.83 (15.011)
  Subjective Sleep Efficiency, Mean (SD): 69.45 (16.925)
  Subjective Sleep Efficiency, Model-adjusted change from baseline: 14.82

## Cc1ncc(OC[C@@]2(c3cccc(F)c3)C[C@H]2C(=O)Nc2ccc(F)cn2)c(C)n1 [Lemborexant, (1R,2S)-2-(((2,4-dimethylpyrimidin-5-yl)oxy)methyl)-2-(3-fluorophenyl)-N-(5-fluoropyridin-2-yl)cyclopropanecarboxamide]
[1]; either dose, at either time point (FIGS. 11A-11D)
  cognitive tests compared with placebo: neither dose of lemborexant differed from placebo
[2]; Lemborexant 5 mg
  Insomnia Severity Daytime Functioning (Items 4-7), Change from Study Baseline, Mean (SD): −4.83 (3.593)
  Insomnia Severity Daytime Functioning (Items 4-7), Change from Study Baseline, Median: −4.00
  Insomnia Severity Daytime Functioning (Items 4-7), Mean (SD): 6.12 (3.488)
  Insomnia Severity Daytime Functioning (Items 4-7), Median: 6.00
[2]; Lemborexant 10 mg
  Insomnia Severity Daytime Functioning (Items 4-7), Change from Study Baseline, Mean (SD): −4.77 (3.735)
  Insomnia Severity Daytime Functioning (Items 4-7), Change from Study Baseline, Median: −4.00
  Insomnia Severity Daytime Functioning (Items 4-7), Mean (SD): 6.10 (3.617)
  Insomnia Severity Daytime Functioning (Items 4-7), Median: 6.00
[2]; lemborexant treatment groups, relative to baseline and the placebo treatment group (Table 23)
  mean insomnia severity index daytime score: reduced
[3]; 10 mg, relative to baseline, placebo and zolpidem treatment groups (Table 19)
  mean subjective sleep efficiency: increased
[3]; [6]
  Subjective Sleep Efficiency, Change from Study Baseline, Mean (SD): 10.56 (12.296)
  Subjective Sleep Efficiency, Mean (SD): 65.96 (18.203)
  Subjective Sleep Efficiency, Model-adjusted change from baseline: 10.74
[3]; [7]
  Subjective Sleep Efficiency, Change from Study Baseline, Mean (SD): 13.97 (14.188)
  Subjective Sleep Efficiency, Mean (SD): 68.10 (18.356)
  Subjective Sleep Efficiency, Model-adjusted change from baseline: 13.81
[3]; [8]
  Subjective Sleep Efficiency, Change from Study Baseline, Mean (SD): 12.92 (13.884)
  Subjective Sleep Efficiency, Mean (SD): 68.19 (19.251)
  Subjective Sleep Efficiency, Model-adjusted change from baseline: 13.29
[3]; [9]
  Subjective Sleep Efficiency, Change from Study Baseline, Mean (SD): 16.12 (16.3000)
  Subjective Sleep Efficiency, Mean (SD): 69.92 (19.098)
  Subjective Sleep Efficiency, Model-adjusted change from baseline: 15.87

Source: US20220305012A1, “L[…] TREATING SLEEP ISSUES” (EISAI R&D MANAGEMENT CO., LTD., priority 2019, published 2022)
